EC50 and Max % data for 30 compounds are collected here from patent publication US9988400B2 (Genentech, Inc., priority 2013, dated 2018).

pEC50: −log10 of the molar value.

The target of this assay is T1, HEK cells stably transfected with tetracycline inducible hNR1 and hNR2A (Homo sapiens, UniProt Q05586+Q12879).
T1 construct: expressed in transfected cells; host or cells: HEK cells, stably transfected, tetracycline/doxycycline inducible
Briefly: Assay 1: Cell-Based Assay, cytosolic calcium response to positive allosteric modulators (with 30 μM glycine and 300 nM L-glutamate, EC30). Particulars: for pEC50: cytosolic calcium response, with 30 μM glycine and 300 nM L-glutamate (EC30), — = no plateau was reached; for Max %: responses scaled relative to 100 μM L-glutamate maximal response (100%) and 0 μM L-glutamate (0%). In outline:
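Cells induced 24 h with 7.5 μg mL^−1 doxycycline plus 500 μM (+)-ketamine, loaded 60 min at 37 °C with calcium dye in Mg-free HBSS (1.8 mM Ca, probenecid, 10 μM (+)-ketamine, pH 7.15). Peak RFU over 5 min after compound addition, scaled to 100 μM L-glutamate (100%) and 0 μM (0%); four-parameter Hill fit for EC50, max % if no plateau.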

The term pEC50 denotes the negative decadic logarithm of the EC50, by convention in mol/L.

T1 sequence (Q12879 23-1464, other chains not shown): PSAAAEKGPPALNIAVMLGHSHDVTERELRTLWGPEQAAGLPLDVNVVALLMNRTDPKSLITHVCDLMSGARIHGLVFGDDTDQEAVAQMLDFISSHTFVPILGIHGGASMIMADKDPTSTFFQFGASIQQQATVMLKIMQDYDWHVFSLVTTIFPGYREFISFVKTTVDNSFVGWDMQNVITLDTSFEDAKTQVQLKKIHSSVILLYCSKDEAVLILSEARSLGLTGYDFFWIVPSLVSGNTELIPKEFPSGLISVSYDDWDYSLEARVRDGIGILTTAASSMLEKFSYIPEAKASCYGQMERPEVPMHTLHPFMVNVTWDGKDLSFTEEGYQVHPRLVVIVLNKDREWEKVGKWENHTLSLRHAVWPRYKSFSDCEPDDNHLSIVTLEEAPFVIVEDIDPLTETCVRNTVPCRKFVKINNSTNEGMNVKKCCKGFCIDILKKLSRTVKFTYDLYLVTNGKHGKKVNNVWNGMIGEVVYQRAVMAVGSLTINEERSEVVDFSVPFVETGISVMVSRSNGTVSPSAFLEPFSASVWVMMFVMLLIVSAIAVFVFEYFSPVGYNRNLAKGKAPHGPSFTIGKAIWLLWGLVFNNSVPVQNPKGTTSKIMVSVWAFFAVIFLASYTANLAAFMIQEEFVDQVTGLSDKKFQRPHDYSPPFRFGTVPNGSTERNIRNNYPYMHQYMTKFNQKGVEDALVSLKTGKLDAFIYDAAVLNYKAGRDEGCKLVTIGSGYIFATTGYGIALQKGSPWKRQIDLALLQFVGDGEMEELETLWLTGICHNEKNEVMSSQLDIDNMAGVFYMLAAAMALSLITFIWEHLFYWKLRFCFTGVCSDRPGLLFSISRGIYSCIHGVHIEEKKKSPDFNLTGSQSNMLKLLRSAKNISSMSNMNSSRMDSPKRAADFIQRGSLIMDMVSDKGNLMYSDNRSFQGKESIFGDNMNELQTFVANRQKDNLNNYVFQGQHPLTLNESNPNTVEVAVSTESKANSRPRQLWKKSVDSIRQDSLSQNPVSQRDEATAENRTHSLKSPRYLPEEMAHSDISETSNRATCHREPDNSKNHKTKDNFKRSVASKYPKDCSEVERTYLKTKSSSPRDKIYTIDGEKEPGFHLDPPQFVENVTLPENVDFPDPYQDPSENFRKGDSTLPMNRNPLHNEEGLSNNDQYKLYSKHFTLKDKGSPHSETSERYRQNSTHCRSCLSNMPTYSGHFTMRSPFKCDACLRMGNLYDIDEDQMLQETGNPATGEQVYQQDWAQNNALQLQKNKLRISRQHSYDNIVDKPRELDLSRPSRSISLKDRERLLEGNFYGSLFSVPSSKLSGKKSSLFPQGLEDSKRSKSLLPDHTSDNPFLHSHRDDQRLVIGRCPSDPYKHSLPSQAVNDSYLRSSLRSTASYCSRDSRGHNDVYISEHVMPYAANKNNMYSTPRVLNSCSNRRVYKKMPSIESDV

`Cc1sc2nc(Cn3nc(CCO)cc3C(F)(F)F)cc(=O)n2c1[C@@H]1C[C@H]1CO` (relative stereo) [Example 15.8, 7-((3-(2-hydroxyethyl)-5-(trifluoromethyl)-1H-pyrazol-1-yl)methyl)-3-(trans-2-(hydroxymethyl)cyclopropyl)-2-methyl-5H-thiazolo[3,2-a]pyrimidin-5-one]: for the setting “Table 2”, the pEC50 was 4.51 and the Max % was found to be 122%.
`COCC1CC1c1c(C)sc2nc(COc3ccc(F)cc3)cc(=O)n12` (stereo not drawn) [Example 4.27, 7-(4-Fluorophenoxymethyl)-3-[2-(methoxymethyl)cyclopropyl]-2-methyl-5H-[1,3]thiazolo[3,2-a]pyrimidin-5-one]: for the setting “Table 2”, the Max % was 103%.
As to `CCC(=O)c1c(C(F)(F)F)sc2nc(Cn3nc(C(F)(F)F)cc3Cl)cc(=O)n12` [compound 250, 7-[[5-Chloro-3-(trifluoromethyl)pyrazol-1-yl]methyl]-3-propanoyl-2-(trifluoromethyl)thiazolo[3,2-a]pyrimidin-5-one], for the setting “Table 3”, the pEC50 is 4.86.
As for `Cc1sc2nc(CN(C)c3ccc(F)cc3)cc(=O)n2c1-c1cncnc1` [Example 5.2, 7-(((4-fluorophenyl)(methyl)amino)methyl)-2-methyl-3-(pyrimidin-5-yl)-5H-thiazolo[3,2-a]pyrimidin-5-one], for the setting “Table 2”, the pEC50 is 5.24 and the Max % amounted to 148%.
For `CNC(=O)c1c(C)sc2nc(Cc3cccc(OC(F)(F)F)c3)cc(=O)n12` [Example 21.49, N,2-dimethyl-5-oxo-7-[[3-(trifluoromethoxy)phenyl]methyl]thiazolo[3,2-a]pyrimidine-3-carboxamide], the Max % (Table 2) came to 82.3%.
With `CCN(Cc1cc(=O)n2c(C(C)=O)c(C)sc2n1)c1ccc(F)cc1` [Example 10.3, 3-acetyl-7-[[ethyl(4-fluorophenyl)amino]methyl]-2-methyl-5H-[1,3]thiazolo[3,2-a]pyrimidin-5-one], where the note is “Table 2”, the pEC50 is 6.27 and the Max % is reported as 177%.
The corresponding values for `Cc1sc2nc(COc3ccc(F)cc3)cc(=O)n2c1C(C)O` (stereo not drawn) [Example 2.3, 7-(4-Fluorophenoxymethyl)-3-(1-hydroxyethyl)-2-methyl-5H-[1,3]thiazolo[3,2-a]pyrimidin-5-one] are 4.90 and 49.8%.
Regarding `Cc1sc2nc(Cn3nc(Cl)cc3C(F)(F)F)cc(=O)n2c1C(F)(F)F` [compound 161, 7-[[3-chloro-5-(trifluoromethyl)pyrazol-1-yl]methyl]-2-methyl-3-(trifluoromethyl)thiazolo[3,2-a]pyrimidin-5-one], the pEC50 (Table 3) is 5.83.
The same measure, in the same setting: the value for `Cc1sc2nc(Cn3nncc3C3CC3)cc(=O)n2c1C1CC1CO` (stereo not drawn) [compound 153, 7-[(5-Cyclopropyltriazol-1-yl)methyl]-3-[2-(hydroxymethyl)cyclopropyl]-2-methyl-thiazolo[3,2-a]pyrimidin-5-one] was 4.13.
Same read-out and setting: the value for `Cc1sc2nc(CN(C)c3ccc(Cl)cn3)cc(=O)n2c1C1CC1CO` (stereo not drawn) [compound 163, 7-[[(5-chloro-2-pyridyl)-methyl-amino]methyl]-3-[2-(hydroxymethyl)cyclopropyl]-2-methyl-thiazolo[3,2-a]pyrimidin-5-one] was 6.44.
In the case of `Cc1sc2nc(Cn3nc(C(F)(F)F)cc3C3CC3)c(F)c(=O)n2c1[C@@H]1C[C@H]1CO` (relative stereo) [Example 15.20, 7-((5-cyclopropyl-3-(trifluoromethyl)-1H-pyrazol-1-yl)methyl)-6-fluoro-3-(trans-2-(hydroxymethyl)cyclopropyl)-2-methyl-5H-thiazolo[3,2-a]pyrimidin-5-one], where the note is “Table 2”, the pEC50 was 6.50 and the Max % worked out at 153%.
The matching figures for `CCN(Cc1cc(=O)n2c(-c3ccoc3)c(C)sc2n1)c1ccc(F)cc1` [Example 5.44, 7-((ethyl(4-fluorophenyl)amino)methyl)-3-(furan-3-yl)-2-methyl-5H-thiazolo[3,2-a]pyrimidin-5-one]: 5.96 and 158%.
The corresponding values for `CCN(Cc1cc(=O)n2c(CCC(C)(C)O)c(C)sc2n1)c1ccc(F)cc1` [Example 13.9, 7-[[Ethyl(4-fluorophenyl)amino]methyl]-3-(3-hydroxy-3-methylbutyl)-2-methyl-5H-[1,3]thiazolo[3,2-a]pyrimidin-5-one] are 5.30 and 166%.
The matching figures for `CCN(Cc1cc(=O)n2c(-c3ccnnc3)c(C)sc2n1)c1ccc(F)cc1` [Example 5.30, 7-[(N-ethyl-4-fluoro-anilino)methyl]-2-methyl-3-pyridazin-4-yl-thiazolo[3,2-a]pyrimidin-5-one]: 5.37 and 132%.
As to `CNC(=O)c1c(C)sc2nc(Cc3ccc(Cl)cc3F)cc(=O)n12` [Example 21.56, 7-[(4-chloro-2-fluoro-phenyl)methyl]-N,2-dimethyl-5-oxo-thiazolo[3,2-a]pyrimidine-3-carboxamide], the Max % (Table 2) is on record as 41%.
Consider `CCN(Cc1cc(=O)n2c(-c3cscn3)c(C)sc2n1)c1ccc(F)cc1` [Example 5.20, 7-[(N-ethyl-4-fluoro-anilino)methyl]-2-methyl-3-thiazol-4-yl-thiazolo[3,2-a]pyrimidin-5-one], for which, for the setting “Table 2”, the pEC50 was 6.09 and the Max % worked out at 157%.
The corresponding values for `CCN(Cc1cc(=O)n2c(Cl)c(C)sc2n1)c1ccc(F)cc1` [Example 11.1, 3-chloro-7-[[ethyl(4-fluorophenyl)amino]methyl]-2-methyl-5H-[1,3]thiazolo[3,2-a]pyrimidin-5-one] are 5.70 and 159%.
For the compound `CCNC(=O)c1c(C)sc2nc(Cc3cccc(C(F)F)c3F)c(F)c(=O)n12` [compound 31, 7-[[3-(difluoromethyl)-2-fluoro-phenyl]methyl]-N-ethyl-6-fluoro-2-methyl-5-oxo-thiazolo[3,2-a]pyrimidine-3-carboxamide], under “Table 3”, the pEC50 is 5.38.
For `CNC(=O)c1c(C)sc2nc(Cn3cc(C(F)(F)F)cn3)cc(=O)n12` [compound 72, N,2-dimethyl-5-oxo-7-[[4-(trifluoromethyl)pyrazol-1-yl]methyl]thiazolo[3,2-a]pyrimidine-3-carboxamide], where the note is “Table 3”, the pEC50 was 4.20.
Regarding `CCNC(=O)c1c(C)sc2nc(Cc3cc(C#N)ccc3CC)cc(=O)n12` [Example 21.64, 7-(5-cyano-2-ethylbenzyl)-N-ethyl-2-methyl-5-oxo-5H-thiazolo[3,2-a]pyrimidine-3-carboxamide], the Max % (Table 2) was 120%.
Regarding `Cc1sc2nc(Cc3cccc(C#N)c3F)c(F)c(=O)n2c1C(=O)NCC(F)(F)F` [compound 15, 7-[(3-cyano-2-fluoro-phenyl)methyl]-6-fluoro-2-methyl-5-oxo-N-(2,2,2-trifluoroethyl)thiazolo[3,2-a]pyrimidine-3-carboxamide], where the note is “Table 3”, the pEC50 is 5.04.
On the same count and under the same terms, then `CNC(=O)c1c(C(F)(F)F)sc2nc(Cn3nc(C(F)(F)F)cc3Cl)cc(=O)n12` [compound 55, 7-[[5-chloro-3-(trifluoromethyl)pyrazol-1-yl]methyl]-N-methyl-5-oxo-2-(trifluoromethyl)thiazolo[3,2-a]pyrimidine-3-carboxamide], with 5.94.
Turning to `CCN(Cc1cc(=O)n2c3c(sc2n1)CCC3C#N)c1ccc(F)cc1` (stereo not drawn) [Example 8.12, 6-[(N-ethyl-4-fluoro-anilino)methyl]-8-oxo-2,3-dihydro-1H-cyclopenta[3,4]thiazolo[1,4-a]pyrimidine-1-carbonitrile], for the setting “Table 2”, the negative-log EC50 (pEC50) was 6.41 and the Max % was 161%.
The matching figures for `CNC(=O)c1c(C(F)(F)F)sc2nc(COc3ccc(F)cc3)cc(=O)n12` [Example 3.2, 7-(4-Fluorophenoxymethyl)-N-methyl-5-oxo-2-(trifluoromethyl)-5H-[1,3]thiazolo[3,2-a]pyrimidine-3-carboxamide]: 5.00 and 42.7%.
With `CCNC(=O)c1c(OC)sc2nc(Cn3nc(C4CC4)cc3C(F)(F)F)cc(=O)n12` [compound 130, 7-[[3-cyclopropyl-5-(trifluoromethyl)pyrazol-1-yl]methyl]-N-ethyl-2-methoxy-5-oxo-thiazolo[3,2-a]pyrimidine-3-carboxamide], the pEC50 (Table 3) was 5.16.
As for `Cc1sc2nc(COc3ccc(F)cc3)cc(=O)n2c1C1CC1C#N` (single isomer, unassigned) [Example 4.19, cis-2-[7-(4-Fluorophenoxymethyl)-2-methyl-5-oxo-5H-[1,3]thiazolo[3,2-a]pyrimidin-3-yl]cyclopropane-1-carbonitrile], where the note is “Table 2”, the negative-log EC50 (pEC50) is 5.05 and the Max % turned out to be 46.9%.
As for `O=c1cc(Cn2nc(C(F)(F)F)cc2Cl)nc2sc(C(F)(F)F)c(C3CC3CO)n12` (single isomer, unassigned) [compound 270], the negative-log EC50 (pEC50) (Table 3) is 6.29.
Still for that read-out and setting: the value for `Cc1sc2nc(Cn3nc(C(F)(F)F)cc3C)cc(=O)n2c1C(=O)NCC(F)(F)F` [compound 52, 2-methyl-7-[[5-methyl-3-(trifluoromethyl)pyrazol-1-yl]methyl]-5-oxo-N-(2,2,2-trifluoroethyl)thiazolo[3,2-a]pyrimidine-3-carboxamide] was 5.06.
`CCN(Cc1cc(=O)n2c(C#N)csc2n1)c1ccc(F)cc1` [Example 7.4, 7-[(N-ethyl-4-fluoro-anilino)methyl]-5-oxo-thiazolo[3,2-a]pyrimidine-3-carbonitrile]: where the note is “Table 2”, the pEC50 was 5.24 and the Max % turned out to be 166%.
The matching figures for `CCN(Cc1cc(=O)n2c3c(sc2n1)CCC3CC(N)=O)c1ccc(F)cc1` (stereo not drawn) [Example 8.16, 2-[6-[(N-ethyl-4-fluoro-anilino)methyl]-8-oxo-2,3-dihydro-1H-cyclopenta[3,4]thiazolo[1,4-a]pyrimidin-1-yl]acetamide]: 4.89 and 137%.
